Experimental data published in patent US20250188032A1, “NITROGEN-CONTAINING HETEROCYCLIC COMPOUNDS AND USES THEREOF” (BNH RESEARCH CO., LTD., priority 2022, published 2025).

Legend:
[1] = test system: 293T cells; experiment: Cytotoxicity test (CCK-8 cell viability) in 293T cells; type: cell-based, human
Description: Human undifferentiated neuroblastoma cell line SH-SY5Y and human embryonic kidney cell line (HEK)-293T were purchased from Korean Cell Line Bank (Korea) and Takara (Japan), respectively. Cells were grown in HyClone Minimal Essential Medium (MEM) and Dulbecco's Modified Eagle Medium (DMEM), respectively, supplemented with 10% (v/v) fetal bovine serum (FBS), penicillin (100 U/mL), and streptomycin ([…]). Cells were maintained in a humidified atmosphere of 95% air and 5% CO2 at 37° C. Cells were passaged 10 times at maximum. Cells were dissociated using 0.05% trypsin-EDTA solution and the cells were seeded in new culture dishes for maintenance.
To examine the cytotoxicity of compounds described herein in human cell lines, SH-SY5Y and 293T cells were used. Approximately 8,000 cells (for 293T) and 15,000 cells (for SH-SY5Y) were plated per well of a 96-well plate (SPL Life Sciences Co., Ltd., Pocheon, Korea). After incubating at 37° C. for 24 hours in a humidified atmosphere containing 5% CO2, the culture medium was replaced by a series of concentrations of test compounds diluted in the corresponding culture medium. The time of co-incubation was 24 hours and six replicates were made for each measurement. Finally, 10 μL of CCK-8 reagent (Dojindo Laboratories, Rockville, MD) was added to each well, and after incubation at 37° C. for 3 minutes, the OD at 450 nm was measured using a multifunction microplate reader (Tecan Infinite M200 Pro). These measurements were compared to that of a control and expressed as a percentage of the control to calculate cell viability. The IC50 value was calculated using SPSS software. To do this, the absorbance of the blank wells with only growth medium is subtracted from the values or the wells with cells. The readout value of background (vehicle) was set as a 100% viability, and then the percent viability for each test solution was calculated.
Cell viability (%)=[(As-Ab)/(Ac-Ab)]×100
The data was presented as the mean value and standard error of the mean (S.E.M.). Statistical analysis was performed with the one-way ANOVA with Tukey's post hoc test (GraphPad Prism 5 software package, version 5.02, GraphPad Software Inc. USA). Significance was accepted at p<0.05.

[2] = test system: HDAC4, BDNF and GluN2B expression in C57BL/6J mice cortex; experiment: Western blotting of HDAC4, BDNF and GluN2B in mouse cortical tissue after administration; type: in vivo
Description: For preparation of thalamocortical (TC) slices, 9- to 10-week-old male C57BL/6J rodents (mice) were anesthetized with isoflurane. Then, the brains were rapidly cooled by transcardial perfusion with ice-cold sucrose-artificial cerebrospinal fluid (aCSF). The brains were removed and placed in ice-cold sucrose aCSF. Paracoronal slices were prepared at a 50° angle to the midline on a ramp at an angle of 10°. The slices were then incubated in aCSF for 30 minutes at 35° C. to recover.
Subsequently, the slices were incubated in aCSF for 1 to 4 hours at room temperature (23 to 25° C.) before being placed in the recording chamber for experiment. Standard aCSF contains saturated with 95% O2/5% CO2.
All electrophysiological experiments were conducted at 27 to 29° C. Rodent (mice) was perfused with […] a sucrose-based aCSF solution (4° C.) using gravity. The brain of the rodent (mice) was removed and cut into 400 urn at a 50° angle (mouse at a 55° angle) to attach the cut portion to the vibratome disc to be the bottom. Brain slice was incubated in Incubate aCSF solution at 35° C. for 30 minutes or Incubate aCSF solution at RT for 1 hour. Cortical tissue from mice was prepared according to protocol above then was homogenized and lysed for protein extraction. The protein lysate was prepared from the tissue with NP40(FNN0021, Invitrogen) protein lysis buffer containing protease & […] according to the manufacturer's instruction. Protein concentrations were determined using the BCA Protein Assay Kit (Pierce Biotechnology) with bovine serum albumin as a standard. Equal amounts of proteins (20 μg per lane) were separated by electrophoresis on 8% or 12% SDS-polyacrylamide gel, followed by blotting onto PVDF membranes (GE Healthcare). To block nonspecific binding, the membranes were incubated for 1 h at room temperature in 5% non-fat dry milk in PBST (150 mM NaCl, 50 mM Tris, pH 7.4, 0.05% Tween 20). The following antibodies were incubated overnight at 4° C. in 2% blocking solution: Anti-HDAC4 (SAB4300413, Sigma-Aldrich), Anti-BDNF (ANT-010, Alomone Las), Anti-NMDAR2B (ab65783, abcam plc). Following the incubation with antibodies and several rinses in PBST, the membranes were incubated for 1 h with the mouse anti-rabbit IgG-HRP conjugated secondary anti-bodies (sc-2357, Santa Cruz). Each blot was subsequently re-probed with anti-β-actin antibody (sc-47778, Santa Cruz). Housekeeping protein β actin was detected as a normalization control. Antibodies used for methods described herein are as follows: […]

[3] = oral, 1 mg/kg, 8-week-old C57BL/6J mice, sacrificed 2 days later, vs vehicle

Row | SMILES | Change in cell viability ([1]; 0, 0.1, 1, 10, 100 μM, 293T) | HDAC4 protein expression in mice barrel cortex ([2]; intraperitoneal administration) | HDAC4 protein expression in mice barrel cortex ([2]; oral administration) | Duration of inhibitory effect on HDAC4 protein expression ([2]; oral and intraperitoneal administration, mice barrel cortex) [days] | Cell viability test results (CCK) 10 uM ([1]; 10 uM, 24 hours co-incubation, 293T cell line, % of control) [%<] | Cell viability test results (CCK) 100 uM ([1]; 100 uM, 24 hours co-incubation, 293T cell line, % of control) [%<] | BDNF expression [2, 3] | GluN2B expression [2, 3] | HDAC4 expression [2, 3] | GluN2B expression ([2]; oral, 1 mg/kg, 13-month-old C57BL/6J mice, sacrificed 2 days later, vs vehicle)
1 | CC1CCC(C(=O)O)CN1C(=O)Cc1ccc(F)cc1Cl (racemic) [BnH12001, 1-(2-(2-chloro-4-fluorophenyl)acetyl)-6-methylpiperidine-3-carboxylic acid] | no significant change in cell viability | significantly suppressed | significantly suppressed | ≥ 9 | – | – | – | – | – | –
2 | C[C@@H]1CC[C@H](C(=O)O)CN1C(=O)Cc1ccc(F)cc1Cl [BnH12001 enantiomer (3S,6R, 98%<), (3S,6R)-1-(2-(2-chloro-4-fluorophenyl)acetyl)-6-methylpiperidine-3-carboxylic acid] | – | – | – | – | 99 | 95 | significantly increased | significantly increased | effectively degraded | significantly increased
